Laboratory results taken from PMC3486420, “In Vitro and In Vivo Characterizations of Chiglitazar, a Newly Identified PPAR Pan-Agonist” (PPAR Research, 2012).

Columns and labels:
PPARγ = target: T1, PPARγ (Homo sapiens, UniProt P37231); experiment: PPARγ transactivation reporter gene assay in SMMC-7721 cells; format: cell-based; settings: SMMC-7721 cells
T1 construct: expressed in transfected cells; host or cells: SMMC-7721 or U2OS
T1 sequence (P37231 1-505): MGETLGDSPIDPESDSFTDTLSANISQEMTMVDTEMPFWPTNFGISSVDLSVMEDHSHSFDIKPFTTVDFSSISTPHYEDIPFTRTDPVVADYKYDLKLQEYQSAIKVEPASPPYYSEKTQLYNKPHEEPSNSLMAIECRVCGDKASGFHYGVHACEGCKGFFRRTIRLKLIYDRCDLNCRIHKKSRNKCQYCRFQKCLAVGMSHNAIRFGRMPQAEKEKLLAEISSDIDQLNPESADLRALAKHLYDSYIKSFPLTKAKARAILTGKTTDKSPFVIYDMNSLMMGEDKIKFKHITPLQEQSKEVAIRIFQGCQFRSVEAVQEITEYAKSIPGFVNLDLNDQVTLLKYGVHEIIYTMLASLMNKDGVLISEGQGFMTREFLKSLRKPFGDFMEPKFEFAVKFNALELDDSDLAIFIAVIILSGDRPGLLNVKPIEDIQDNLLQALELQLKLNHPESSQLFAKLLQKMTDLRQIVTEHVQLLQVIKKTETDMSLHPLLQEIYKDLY
T1 sequence (P19793 1-462 partner): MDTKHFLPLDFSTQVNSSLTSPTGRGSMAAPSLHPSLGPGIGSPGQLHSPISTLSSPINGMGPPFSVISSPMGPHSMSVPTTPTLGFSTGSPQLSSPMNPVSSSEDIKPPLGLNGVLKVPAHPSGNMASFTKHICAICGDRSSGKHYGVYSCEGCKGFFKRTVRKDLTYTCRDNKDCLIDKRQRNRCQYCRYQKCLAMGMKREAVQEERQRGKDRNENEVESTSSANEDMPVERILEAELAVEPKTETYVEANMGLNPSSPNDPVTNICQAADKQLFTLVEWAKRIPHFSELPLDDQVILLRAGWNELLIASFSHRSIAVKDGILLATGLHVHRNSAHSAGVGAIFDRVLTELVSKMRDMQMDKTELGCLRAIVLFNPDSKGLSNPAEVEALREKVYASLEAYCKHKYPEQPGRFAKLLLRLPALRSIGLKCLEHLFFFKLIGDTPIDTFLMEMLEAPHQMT

PPARδ = target: T2, PPARδ (Homo sapiens, UniProt Q03181); experiment: PPARδ transactivation reporter gene assay in U2OS cells; format: cell-based; settings: U2OS cells
T2 construct: expressed in transfected cells; host or cells: SMMC-7721 or U2OS
T2 sequence (Q03181 1-441): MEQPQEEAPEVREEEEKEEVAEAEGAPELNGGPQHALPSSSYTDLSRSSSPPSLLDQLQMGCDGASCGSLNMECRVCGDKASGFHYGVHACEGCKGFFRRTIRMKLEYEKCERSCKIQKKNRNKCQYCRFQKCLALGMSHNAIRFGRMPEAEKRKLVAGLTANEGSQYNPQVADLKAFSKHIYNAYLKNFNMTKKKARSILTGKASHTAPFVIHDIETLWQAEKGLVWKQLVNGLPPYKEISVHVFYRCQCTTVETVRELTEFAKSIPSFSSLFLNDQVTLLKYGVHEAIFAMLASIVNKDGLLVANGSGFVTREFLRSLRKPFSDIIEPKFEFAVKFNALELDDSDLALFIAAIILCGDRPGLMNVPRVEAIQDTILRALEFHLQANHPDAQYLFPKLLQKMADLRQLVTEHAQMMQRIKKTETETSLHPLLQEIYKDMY
T2 sequence (P19793 1-462 partner): T1 sequence (P19793 1-462 partner)

KKAy mice = experiment: Gene expression by RT-PCR in tissues of treated KKAy mice; format: in vivo, mouse; settings: 12 days oral
Experimental: Total RNA was extracted from cells or tissues with an RNeasy minikit (Qiagen, Valencia, CA, USA). The first-strand cDNA was synthesized using the oligo(dT) primers, followed by using SuperScript II reverse transcriptase (Invitrogen) according to the manufacturer's instructions. The PCR amplifications were performed in 10 μL of reaction mixture volume containing 0.8 μL of cDNA, 10 mM Tris-HCl (pH 8.3), 50 mM KCl, 1.5 mM MgCl2, 0.1% Triton X-100, 0.2 mM deoxynucleotide triphosphates, 0.4 μM primers, and 0.25 U of Taq polymerase (TaKaRa Biotechnology Co., Ltd, China). Taq DNA polymerase was added to each tube after a treatment of 2 min at 94°C. This was followed by 22–30 cycles of denaturation (23 s at 94°C), annealing (20 s at 55°C), extension (30 s at 72°C), and a final extension step of 2 min. PCR products were analyzed by electrophoresis on a 1.5% agarose gel stained with ethidium bromide.
Male db/db mice (BKS.Cg-m +/+ LEPR^db) in 6-7 weeks were purchased from The Jackson Laboratory (Bar Harbor, ME, USA). Male KKAy and C57BL/6J mice in 8–10 weeks were obtained from the Institute of Animal Science, Chinese Academy of Medical Sciences and Peking Union Medical College (Beijing, China). Animals were randomly sorted into different treatment groups (8–10 per group). […]. Plasma glucose levels were examined at various time points by Accu-Chek Advantage II Glucose Strips (Roche Diagnostics, Basel, Switzerland) and measured by Accu-Chek Advantage (Roche Diagnostics). Animals were sacrificed 24 h after the last dosing and abdominal fat pad, liver, and skeletal muscle from KKAy mice and abdominal fat pad from db/db mice were taken for gene expression analysis.
Figure 3 In vivo regulation of gene expression by chiglitazar. […]. Equal amount of total RNA from each mouse in the same group was mixed and subjected to RT-PCR analysis for the indicated genes. […]. Total RNA was isolated from individual animal tissues and subjected to the RT-PCR analysis independently for the indicated genes.

[1] = chiglitazar 20 mg kg^−1, rosiglitazone 5 mg kg^−1

Structure (SMILES): O=C(c1ccc(F)cc1)c1ccccc1NC(Cc1ccc(OCCn2c3ccccc3c3ccccc32)cc1)C(=O)O (centres unmarked) [Chi, 2-[(2-(4-fluorobenzoyl)phenyl)amino]-3-[4-(2-carbazolylethoxy)-phenyl]-propionic acid]
- EC50 (PPARγ; 24 h treatment, luciferase reporter, hRXR cotransfected, ia: inactive at 10 μM, read-out: PPARγ EC50): 0.09 ± 0.02 µM
- PPARγ % Max (PPARγ; max response compared with Ros at 1 μM): 105%
- EC50 (PPARδ; 24 h treatment, luciferase reporter, hRXR cotransfected, ia: inactive at 10 μM, read-out: PPARδ EC50): 1.5 ± 0.2 µM
- PPARδ % Max (PPARδ; max response compared with 2-Bro at 10 μM): 244%
- Expression of ACADL, HSL, GLUT4 and PPARγ in liver and skeletal muscle (KKAy mice; [1]): not affected
- Expression of genes involved in PPARγ-mediated insulin sensitization in adipose tissue (KKAy mice; [1]): almost identically up-regulated
- Expression of PPARα and VLCS in adipose tissue (KKAy mice; chiglitazar 20 mg kg^−1 compared with rosiglitazone 5 mg kg^−1): greater degree of upregulation
- Expression of leptin and SREBP1 in liver and skeletal muscle (KKAy mice; chiglitazar 20 mg kg^−1 vs rosiglitazone 5 mg kg^−1): more upregulated
